Experimental data as given in patent US20070118999A1, “Compositions suitable for the treatment of hair comprising chelants and methods for reducing oxidative hair damage” (The Procter & Gamble Company, priority 2001, published 2007).

Experiments:
[1] = Hydrogen Peroxide Decomposition Ratio Measurement Protocol
Procedure: The Hydrogen Peroxide Decomposition Ratio Measurement Protocol is defined as follows: 6.0% by weight of concentrated ammonium hydroxide (30% active ammonia) is added to deionised water and the pH of the solution is adjusted to 10 using acetic acid. 300 ppm of copper sulphate and 0.026M of the chelant to be tested are added to said composition. […] The initial level of hydrogen peroxide is measured at this moment (t=0); the final level of hydrogen peroxide is measured after 30 minutes. The value of the ratio of the hydrogen peroxide concentration at t=0 and at t=30 mn is the Hydrogen Peroxide Decomposition Ratio (% Loss).
The initial and final level of hydrogen peroxide can be measured according to any standard technique. The following is a well-known and standard technique that was used by the inventors: 0.2-0.3 g (the exact quantity being precisely measured) of the solution to be titrated is added to 40 ml of 10% acetic acid. […] The level of hydrogen peroxide (% Peroxide) is then calculated from the following equation: [formula]
Three replicate runs are made at both t=0 and t=30 mn and then averaged to calculate the Hydrogen Peroxide Decomposition Ratio (% Loss).

[2] = 5-Cycle Oxidative Hair Treatment Protocol with FT-IR Damage Assessing Protocol; set-up: species or system human; settings: for oxidative hair damage prevention (in words): real conditions of use: pH 10, non-deionized water with Cu^2+ and Ca^2+; for Damage after 5 cycles (cysteic acid units) / Damage benefit vs EDTA 2%: 5 bleaching cycles, pH 10, 1.9% EDDS, 2.0% HEDP, 2.65% DTPA, 3.8% DTPMP; for Damage after 5 cycles (cysteic acid units): 2% EDTA, sodium salts used
Procedure: A bleaching composition comprising the chelant to be tested is prepared by mixing in equal weight amounts a hydrogen peroxide emulsion base and an alkaline (high pH) emulsion base. The hydrogen peroxide emulsion base contains: […] 2 g of the bleaching composition per g of hair to be treated was applied on the hair switches and massaged in thoroughly. The hair switches were then wrapped in a plastic film and put in an oven at 30° C. […] The excess water was then squeezed out of the hair, and the hair dried with a fan. […] Prell® shampoo was using during these tests. This Oxidative Hair Treatment Protocol can be repeated several times. When damage is measured according to the FT-IR Damage Assessing Protocol (described below) the Oxidative Hair Treatment Protocol is preferably repeated 5 times and this process is described as a 5-Cycle Oxidative Hair Treatment Protocol. Damage caused to the hair was assessed by the FT-IR (Fourier Transform Infrared) method, which has been established to be suitable for studying the effects of oxidative treatments on hair (Strassburger, J., J. Soc. Cosmet. Chem., 36, 61-74 (1985); Joy, M. & Lewis, D. M., Int. J. Cosmet. Sci., 13, 249-261 (1991); Signori, V. & Lewis, D. M., Int. J. Cosmet. Sci., 19, 1-13 (1997)). In particular, these authors have shown that the method is suitable for quantifying the amount of cysteic acid that is produced from the oxidation of cystine. In general, the oxidation of cystine is thought to be a suitable marker by which to monitor the overall oxidation of the keratinous part of the fiber. Signori & Lewis (D. M., Int. J. Cosmet. […] They have shown that this technique is more suitable than using the FT-IR method in simple transmission or microscope modes. […] The detailed description of the method used for testing the different damage inhibitors follows thereafter: […] In this method, hair switches of various sizes and colours can be used. The switches were […] per cm) in order to minimize variations in surface area of contact between readings. The Oxidative Hair Treatment Protocol described above was repeated for 5 cycles to mimic the behavior of hair after repeated bleaching cycles. Following this treatment, four readings per switch were taken ( 1/3 and 2/3s down the switch on both sides), and an average calculated. Backgrounds were collected every 4 readings, and an ATR cell pressure of IN/m was employed. The cell was cleaned with ethanol between each reading, and a contamination check performed using the monitor ratio mode of the instrument. As prescribed by Signori & Lewis in 1997, a normalized double derivative analysis routine was used. […] This normalized absorbance was then twice derivatised using a 13 point averaging. […] The following instrumental conditions were employed: […] The corresponding weight percentage is indicated in the first line of the table below. The tri-sodium salt of EDDS, tetra-sodium salt of EDTA, di-sodium salt of HEDP, penta-sodium salt of DTPA and tetra-sodium salt of DTPMP were used. EDTA and DTPA are commonly used in hair care compositions. HEDP was cited in U.S. Pat. […] DPTMP is another phosphonate chelant. […] Damage and lightening effects were assessed after 5 cycles according to the test method described above (“Oxidative hair treatment protocol”). Human hair is often bleached or dyed 5 times or more during its life, which makes this 5 cycle test very meaningful.

[3] = 1:1 complexes, fully deprotonated chelants; 25deg, 0.1M ionic strength; cited from earlier work
[4] = 1:1 complexes, fully deprotonated chelants; 25deg, 0.1M ionic strength; cited from earlier work; remark: listed apart in the source
[5] = log Conditional Stability Constant at pH 10 with Cu; format: physicochemical
Description: The Conditional Stability Constant is a parameter commonly used in the art to practically assess the stability of metal-chelant complex at a given pH.

Row | Compound | Ratio Cu/Ca (log KCuL/log KCaL) [5] | log Conditional Stability Constant (pH 10) Cu [5] | capacity at inhibiting the red-ox chemistry of copper (in words) [1] | oxidative hair damage prevention (in words) [2] | log K Cu [3] | log K Ca [4] | Damage after 5 cycles (cysteic acid units) [2] | Damage benefit vs EDTA 2% [2] | Hydrogen Peroxide Decomposition Ratio (% Loss) ([1]; pH 10, 300 ppm copper sulphate, 0.026M chelant, 30 minutes)
1 | O=C(O)CN(CCN(CC(=O)O)CC(=O)O)CC(=O)O [EDTA, ethylenediaminetetraacetic acid] |  |  | very good capacity at inhibiting the red-ox chemistry of copper | very poor damage prevention properties | 18.78 | 10.65 |  |  | 
2 | diethylenetriaminepentaacetate [DTPA] | 1.85 | 18.78 |  |  | 21.4 | 10.75 | 147 cysteic acid units | +11% | 
3 | O=P(O)(O)CN(CCN(CP(=O)(O)O)CP(=O)(O)O)CCN(CP(=O)(O)O)CP(=O)(O)O [DTPMP, diethylenetriamine-N,N,N′,N″,N″-penta(methylene phosphonate)] |  |  |  |  | 19.5 | 7.1 |  | +14% | 

Second part, led by results:

Row | Ratio Cu/Ca (log KCuL/log KCaL) [5] | log Conditional Stability Constant (pH 10) Cu [5] | Compound | capacity at inhibiting the red-ox chemistry of copper (in words) [1] | oxidative hair damage prevention (in words) [2] | log K Cu [3] | log K Ca [4] | Damage after 5 cycles (cysteic acid units) [2] | Damage benefit vs EDTA 2% [2] | Hydrogen Peroxide Decomposition Ratio (% Loss) ([1]; pH 10, 300 ppm copper sulphate, 0.026M chelant, 30 minutes)
4 | 1.75 |  | CC(O)(P(=O)(O)O)P(=O)(O)O [HEDP, 1-hydroxyethane-1,1-diphosphonic acid] |  |  | 11.84 | 6.0 |  | +1% | 
5 | 3.76 |  | O=C(O)CC(NCCNC(CC(=O)O)C(=O)O)C(=O)O (stereo not drawn) [EDDS, ethylenediamine-N,N′-disuccinic acid] |  | much less damage than hair treated with any other chelant | 18.35 | 4.58 | 110 cysteic acid units | +33% | 1.5%
